Reference: ChEMBL document CHEMBL4152318, “Halogenated quinolines bearing polar functionality at the 2-position: Identification of new antibacterial agents with enhanced activity against Staphylococcus epidermidis” (Eur J Med Chem, 2018)
Converted amounts (≈) assume the structure as drawn.

Tests used:
Staphylococcus aureus [1] = experiment: Antibacterial activity against methicillin-resistant Staphylococcus aureus BAA-1707 after 16 to 18 hrs by broth microdilution method; type: functional
[2] = tested on: Staphylococcus epidermidis; experiment: Antibacterial activity against methicillin-resistant Staphylococcus epidermidis ATCC 35984 after 16 to 18 hrs by broth microdilution method; type: functional
Enterococcus faecium [3] = experiment: Antibacterial activity against vancomycin-resistant Enterococcus faecium ATCC 700221 after 16 to 18 hrs by broth microdilution method; type: functional
HeLa = experiment: Cytotoxicity against human HeLa cells after 24 hrs by LDH release assay; type: cell-based
[4] = Selectivity index, ratio of IC50 for cytotoxicity against human HeLa cells to MIC for antibacterial activity against methicillin-resistant Staphylococcus epidermidis ATCC 35984; type: toxicity, cell-based; conditions: read-out: Selectivity Index
Staphylococcus aureus [5] = experiment: Bactericidal activity against methicillin-resistant Staphylococcus aureus BAA-1707 planktonic cells after 24 hrs by CBD assay; type: functional; conditions: BAA-1707, 24 h
[6] = Hemolytic activity against human RBC at 200 uM after 1 hr relative to control; type: ADME, cell-based, Erythrocyte; conditions: red blood cells (erythrocytes), read-out: Activity
Staphylococcus aureus [7] = experiment: Antibiofilm activity against methicillin-resistant Staphylococcus aureus BAA-1707 after 24 hrs by CBD assay; type: functional
[8] = tested on: Staphylococcus epidermidis; experiment: Bactericidal activity against methicillin-resistant Staphylococcus epidermidis ATCC 35984 planktonic cells after 24 hrs by CBD assay; type: functional; conditions: ATCC 35984, 24 h
[9] = tested on: Staphylococcus epidermidis; experiment: Antibiofilm activity against methicillin-resistant Staphylococcus epidermidis ATCC 35984 after 24 hrs by CBD assay; type: functional
[10] = tested on: Staphylococcus epidermidis; experiment: Potency index, ratio of TPEN MIC to compound MIC for antibacterial activity against methicillin-resistant Staphylococcus epidermidis ATCC 35984; type: functional
Enterococcus faecium [11] = experiment: Bactericidal activity against vancomycin-resistant Enterococcus faecium ATCC 700221 planktonic cells after 24 hrs by CBD assay; type: functional; conditions: ATCC 700221, 24 h
[12] = Selectivity ratio of MIC for vancomycin-resistant Enterococcus faecium ATCC 700221 to MIC for methicillin-resistant Staphylococcus epidermidis ATCC 35984; type: functional
Enterococcus faecium [13] = experiment: Antibiofilm activity against vancomycin-resistant Enterococcus faecium ATCC 700221 after 24 hrs by CBD assay; type: functional
[14] = Selectivity ratio of MIC for methicillin-resistant Staphylococcus aureus BAA-1707 to MIC for methicillin-resistant Staphylococcus epidermidis ATCC 35984; type: functional
Staphylococcus aureus [15] = experiment: Potency index, ratio of TPEN MIC to compound MIC for antibacterial activity against methicillin-resistant Staphylococcus aureus BAA-1707; type: functional

| Structure (SMILES) | MIC (Staphylococcus aureus [1]) | MIC [2] | MIC (Enterococcus faecium [3]) | IC50 (HeLa) | selectivity ratio [4] | MBC (Staphylococcus aureus [5]) | hemolysis at 1 h, 200 µM [6] | MBEC (Staphylococcus aureus [7]) | MBC [8] | MBEC [9] | Ratio [10] | MBC (Enterococcus faecium [11]) | Selectivity ratio [12] | MBEC (Enterococcus faecium [13]) | Selectivity ratio [14] | Ratio (Staphylococcus aureus [15]) |
| --- | --- | --- | --- | --- | --- | --- | --- | --- | --- | --- | --- | --- | --- | --- | --- | --- |
| CC(=O)NC[C@H]1CN(c2ccc(N3CCOCC3)c(F)c2)C(=O)O1 [LINEZOLID] | 12.5 µM (≈ 4.22 µg/mL) | 3.13 µM (≈ 1.06 µg/mL) | 3.13 µM (≈ 1.06 µg/mL) | – | – | – | – | – | – | – | – | – | – | – | – | – |
| Oc1c(Br)cc(Br)c2ccc(CN3CCNCC3)nc12 | 25 µM (≈ 10 µg/mL) | 12.5 µM (≈ 5.01 µg/mL) | 50 µM (≈ 20.1 µg/mL) | – | – | – | – | – | – | – | – | – | – | – | – | – |
| CCCc1ccc2c(Br)cc(Br)c(O)c2n1 | 0.39 µM (≈ 0.135 µg/mL) | 0.59 µM (≈ 0.204 µg/mL) | 0.78 µM (≈ 0.269 µg/mL) | > 50 µM | > 85 | – | – | – | – | – | – | – | – | – | – | – |
| NCCOCCOCCNCc1ccc2c(Br)cc(Br)c(O)c2n1 | 37.5 µM (≈ 17.4 µg/mL) | 25 µM (≈ 11.6 µg/mL) | 50 µM (≈ 23.2 µg/mL) | – | – | – | – | – | – | – | – | – | – | – | – | – |
| OCc1ccc2c(Br)cc(Br)c(O)c2n1 | 100 µM (≈ 33.3 µg/mL) | 37.5 µM (≈ 12.5 µg/mL) | 25 µM (≈ 8.32 µg/mL) | > 100 µM | > 2.7 | – | – | – | – | – | – | – | – | – | – | – |
| CC(C)(C)OC(=O)NCCOCCOCCNCc1ccc2c(Br)cc(Br)c(O)c2n1 | 12.5 µM (≈ 7.04 µg/mL) | 3.13 µM (≈ 1.76 µg/mL) | 6.25 µM (≈ 3.52 µg/mL) | – | – | – | – | – | – | – | – | – | – | – | – | – |
| C[C@H](NC(=O)OC(C)(C)C)C(=O)N1CCN(Cc2ccc3c(Br)cc(Br)c(O)c3n2)CC1 | 3.13 µM (≈ 1.79 µg/mL) | 3.13 µM (≈ 1.79 µg/mL) | 6.25 µM (≈ 3.58 µg/mL) | – | – | – | – | – | – | – | – | – | – | – | – | – |
| c1ccc(CN(CCN(Cc2ccccn2)Cc2ccccn2)Cc2ccccn2)nc1 | 46.9 µM (≈ 19.9 µg/mL) | 12.5 µM (≈ 5.31 µg/mL) | – | – | – | 375 µM (≈ 159 µg/mL) | ≤ 1% | >2000 µM | 250 µM (≈ 106 µg/mL) | >2000 µM | – | – | – | – | – | – |
| Oc1c(Br)cc(Br)c2ccc(CN3CCOCC3)nc12 | 1.56 µM (≈ 0.627 µg/mL) | 0.59 µM (≈ 0.237 µg/mL) | 3.13 µM (≈ 1.26 µg/mL) | > 100 µM | > 169 | 25 µM (≈ 10.1 µg/mL) | 2.6% | >200 µM | 4.69 µM (≈ 1.89 µg/mL) | 2.35 µM | 16 - 42 | 1.56 µM (≈ 0.627 µg/mL) | > 2 | 1.17 µM | > 2 | 16 - 42 |
| Oc1c(Br)cc(Br)c2ccc(CNc3ccccc3)nc12 | 0.39 µM (≈ 0.159 µg/mL) | 0.15 µM (≈ 0.0612 µg/mL) | 0.78 µM (≈ 0.318 µg/mL) | 100 µM | 667 | – | – | – | – | – | – | – | – | – | – | – |
| OCc1cn(Cc2ccc3c(Br)cc(Br)c(O)c3n2)nn1 | > 100 µM | > 100 µM | > 100 µM | – | – | – | – | – | – | – | – | – | – | – | – | – |
| Cc1ccc2c(Br)cc(Br)c(O)c2n1 [BROQUINALDOL] | – | 1.17 µM (≈ 0.371 µg/mL) | 3.13 µM (≈ 0.992 µg/mL) | > 100 µM | – | – | – | – | – | – | – | – | – | – | – | – |
| COCCOCc1ccc2c(Br)cc(Br)c(O)c2n1 | – | 1.56 µM (≈ 0.61 µg/mL) | – | > 100 µM | – | – | – | – | – | – | – | – | – | – | – | – |
| CCCCCCCCCC(=O)N[C@@H](Cc1c[nH]c2ccccc12)C(=O)N[C@@H](CC(N)=O)C(=O)N[C@@H](CC(=O)O)C(=O)N[C@@H]1C(=O)NCC(=O)N[C@@H](CCCN)C(=O)N[C@@H](CC(=O)O)C(=O)N[C@H](C)C(=O)N[C@@H](CC(=O)O)C(=O)NCC(=O)N[C@H](CO)C(=O)N[C@@H]([C@H](C)CC(=O)O)C(=O)N[C@@H](CC(=O)c2ccccc2N)C(=O)O[C@@H]1C [DAPTOMYCIN] | 3.13 µM (≈ 5.07 µg/mL) | 12.5 µM (≈ 20.3 µg/mL) | 3.13 µM (≈ 5.07 µg/mL) | – | – | – | – | – | – | – | – | – | – | – | – | – |
| CC(C)(C)OC(=O)NCC(=O)N1CCN(Cc2ccc3c(Br)cc(Br)c(O)c3n2)CC1 | 25 µM (≈ 14 µg/mL) | 9.38 µM (≈ 5.24 µg/mL) | 12.5 µM (≈ 6.98 µg/mL) | – | – | – | – | – | – | – | – | – | – | – | – | – |
| CCCNCc1ccc2c(Br)cc(Br)c(O)c2n1 | 2.35 µM (≈ 0.879 µg/mL) | – | 3.13 µM (≈ 1.17 µg/mL) | > 100 µM | – | – | – | – | – | – | – | – | – | – | – | – |
| CN[C@H](CC(C)C)C(=O)N[C@H]1C(=O)N[C@@H](CC(N)=O)C(=O)N[C@H]2C(=O)N[C@H]3C(=O)N[C@H](C(=O)N[C@H](C(=O)O)c4cc(O)cc(O)c4-c4cc3ccc4O)[C@H](O)c3ccc(c(Cl)c3)Oc3cc2cc(c3O[C@@H]2O[C@H](CO)[C@@H](O)[C@H](O)[C@H]2O[C@H]2C[C@](C)(N)[C@H](O)[C@H](C)O2)Oc2ccc(cc2Cl)[C@H]1O [VANCOMYCIN] | – | – | > 100 µM | – | – | 3.9 µM (≈ 5.65 µg/mL) | ≤ 1% | >2000 µM | 3 µM (≈ 4.35 µg/mL) | >2000 µM | – | > 200 µM | – | 150 µM | – | – |
| COCCOCCOCCOCc1ccc2c(Br)cc(Br)c(O)c2n1 | 2.35 µM (≈ 1.13 µg/mL) | 2.35 µM (≈ 1.13 µg/mL) | – | 100 µM | – | – | – | – | – | – | – | – | – | – | – | – |
| CCCCOCc1ccc2c(Br)cc(Br)c(O)c2n1 | 2.35 µM (≈ 0.914 µg/mL) | 0.3 µM (≈ 0.117 µg/mL) | 12.5 µM (≈ 4.86 µg/mL) | > 50 µM | > 167 | – | 2.8% | – | 37.5 µM (≈ 14.6 µg/mL) | 75 µM | 16 - 42 | – | > 2 | – | > 2 | 16 - 42 |
| C#CCNCc1ccc2c(Br)cc(Br)c(O)c2n1 | 3.13 µM (≈ 1.16 µg/mL) | 0.3 µM (≈ 0.111 µg/mL) | 1.56 µM (≈ 0.577 µg/mL) | > 25 µM | > 83 | – | – | – | – | – | 16 - 42 | – | > 2 | – | > 2 | 16 - 42 |
| CC(C)(C)OC(=O)N1CCN(Cc2ccc3c(Br)cc(Br)c(O)c3n2)CC1 | 0.78 µM (≈ 0.391 µg/mL) | 0.3 µM (≈ 0.15 µg/mL) | 0.59 µM (≈ 0.296 µg/mL) | > 100 µM | > 333 | 18.8 µM (≈ 9.42 µg/mL) | 2.8% | 18.8 µM | 37.5 µM (≈ 18.8 µg/mL) | 6.25 µM | – | 4.69 µM (≈ 2.35 µg/mL) | – | 1.56 µM | – | – |
| COCCOCCOCc1ccc2c(Br)cc(Br)c(O)c2n1 | 2.35 µM (≈ 1.02 µg/mL) | 0.78 µM (≈ 0.339 µg/mL) | 3.13 µM (≈ 1.36 µg/mL) | > 100 µM | > 128 | 50 µM (≈ 21.8 µg/mL) | 4.1% | 200 µM | 25 µM (≈ 10.9 µg/mL) | 75 µM | 16 - 42 | 6.25 µM (≈ 2.72 µg/mL) | > 2 | 2.35 µM | > 2 | 16 - 42 |
